Test results reported in ChEMBL document CHEMBL3044943, “Nematicidal prenylated flavanones from Phyllanthus niruri” (2008).
Converted amounts (≈) assume the structure as drawn.

Legend:
[1] = test system: Rotylenchulus reniformis; assay: Nematicidal activity against Rotylenchulus reniformis (reniform nematode) after 72 hr; format: functional
[2] = test system: Meloidogyne incognita; assay: Nematicidal activity against Meloidogyne incognita (root-knot nematode) second stage juveniles after 72 hr; format: functional

SMILES	LC50 [1] [µg/mL]	LC50 [2] [µg/mL]
CNC(=O)Oc1cccc2c1OC(C)(C)C2 [CARBOFURAN]	3.1 (≈ 14 µM)	
CC(C)=CCc1cccc2c1OC(c1ccccc1)CC2=O (stereo not given)	103 (≈ 352 µM)	70.9 (≈ 242 µM)
CC(C)=CCc1cccc2c1OC(c1ccc(O)cc1)CC2=O (stereo not given)	3.3 (≈ 10.7 µM)	14.5 (≈ 47 µM)
